Positions of bridges follow the written chain, without caps; N, C: chain ends. Non-standard residues stand in square brackets, D forms with d. Residues, ends and D or L forms follow the SMILES beside them. *: point of attachment. X1 = N=C(N)NCCC[C@H]1C(=O)N[C@@H](C(N)=O)CN1*; dNle = CCCC[C@@H](N)C(=O)O; Heptanoyl = CCCCCCC(=O)*
Legend:
[1] = Potter et al. 2009; cited from earlier work
human NPRA = target: T1, human NPRA (Homo sapiens, UniProt P16066); experiment: cGMP generation in HEK cells expressing human NPRA; format: cell-based; conditions: mean ± SD
T1 sequence (P16066 33-1061): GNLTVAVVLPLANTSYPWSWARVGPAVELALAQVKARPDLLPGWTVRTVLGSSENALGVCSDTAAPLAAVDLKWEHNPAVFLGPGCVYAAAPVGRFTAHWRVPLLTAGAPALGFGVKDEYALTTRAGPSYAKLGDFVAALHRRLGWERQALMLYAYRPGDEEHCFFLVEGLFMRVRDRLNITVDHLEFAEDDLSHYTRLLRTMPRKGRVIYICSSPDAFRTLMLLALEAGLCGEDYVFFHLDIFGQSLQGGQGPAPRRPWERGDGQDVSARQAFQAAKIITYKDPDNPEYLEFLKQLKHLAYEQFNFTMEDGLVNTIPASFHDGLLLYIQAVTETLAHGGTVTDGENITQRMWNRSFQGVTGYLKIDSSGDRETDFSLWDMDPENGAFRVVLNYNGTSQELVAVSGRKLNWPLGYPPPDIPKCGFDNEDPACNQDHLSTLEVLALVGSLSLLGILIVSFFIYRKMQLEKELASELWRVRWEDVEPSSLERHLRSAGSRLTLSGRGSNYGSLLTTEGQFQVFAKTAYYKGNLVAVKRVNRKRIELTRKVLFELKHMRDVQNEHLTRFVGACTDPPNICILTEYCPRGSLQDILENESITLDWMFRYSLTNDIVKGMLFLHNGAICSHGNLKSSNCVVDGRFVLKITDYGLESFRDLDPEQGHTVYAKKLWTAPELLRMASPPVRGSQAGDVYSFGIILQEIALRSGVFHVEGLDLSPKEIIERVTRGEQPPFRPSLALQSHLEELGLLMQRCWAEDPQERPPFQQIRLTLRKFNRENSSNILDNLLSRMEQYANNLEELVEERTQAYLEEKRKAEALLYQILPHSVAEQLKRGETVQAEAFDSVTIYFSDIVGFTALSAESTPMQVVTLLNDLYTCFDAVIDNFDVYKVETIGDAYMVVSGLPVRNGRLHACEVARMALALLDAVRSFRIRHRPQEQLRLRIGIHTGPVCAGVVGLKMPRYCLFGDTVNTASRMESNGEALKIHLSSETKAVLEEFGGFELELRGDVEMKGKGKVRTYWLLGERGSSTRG
Procedure: Functional evaluation of natriuretic peptide mimetics was performed by measuring the accumulation of intracellular cGMP in HEK-293 cells that express recombinant hNPR-A. HEK-NPRA cells were harvested by washing and centrifugation in Cell Dissociation Buffer (Gibco, Life Technologies). Pelleted cells were resuspended in Hank's Balanced Salt Solution (HBSS) containing 10 mM Hepes (pH 7.4), 5 mM MgCl2, 200 mM L-glutamine, 1 mM 1,10-phenanthroline and BSA (0.5 mg/mL). Following centrifugation, cells were resuspended in the above buffer supplemented with 0.5 mM 3-isobutyl-1-methylxanthine (IBMX). […] The reaction was terminated by lysis of the cells with temperature shock. […] Accumulation of cGMP was measured using the cGMP Flashplate RIA (Perkin-Elmer). Data analysis and EC50 values were determined by using nonlinear regression analysis with GraphPad Prism® software.

hNPRB (human NPRB) = target: T2, hNPRB (human NPRB) (Homo sapiens, UniProt P20594); experiment: NPRB functional assay (cGMP generation) in HEK cell line; format: cell-based; conditions: HEK293, mean ± SD, read-out: hNPRB Function (cGMP) Emax (%)
T2 construct: expressed in transfected cells; host or cells: HEK cell line
T2 sequence (P20594 23-1047): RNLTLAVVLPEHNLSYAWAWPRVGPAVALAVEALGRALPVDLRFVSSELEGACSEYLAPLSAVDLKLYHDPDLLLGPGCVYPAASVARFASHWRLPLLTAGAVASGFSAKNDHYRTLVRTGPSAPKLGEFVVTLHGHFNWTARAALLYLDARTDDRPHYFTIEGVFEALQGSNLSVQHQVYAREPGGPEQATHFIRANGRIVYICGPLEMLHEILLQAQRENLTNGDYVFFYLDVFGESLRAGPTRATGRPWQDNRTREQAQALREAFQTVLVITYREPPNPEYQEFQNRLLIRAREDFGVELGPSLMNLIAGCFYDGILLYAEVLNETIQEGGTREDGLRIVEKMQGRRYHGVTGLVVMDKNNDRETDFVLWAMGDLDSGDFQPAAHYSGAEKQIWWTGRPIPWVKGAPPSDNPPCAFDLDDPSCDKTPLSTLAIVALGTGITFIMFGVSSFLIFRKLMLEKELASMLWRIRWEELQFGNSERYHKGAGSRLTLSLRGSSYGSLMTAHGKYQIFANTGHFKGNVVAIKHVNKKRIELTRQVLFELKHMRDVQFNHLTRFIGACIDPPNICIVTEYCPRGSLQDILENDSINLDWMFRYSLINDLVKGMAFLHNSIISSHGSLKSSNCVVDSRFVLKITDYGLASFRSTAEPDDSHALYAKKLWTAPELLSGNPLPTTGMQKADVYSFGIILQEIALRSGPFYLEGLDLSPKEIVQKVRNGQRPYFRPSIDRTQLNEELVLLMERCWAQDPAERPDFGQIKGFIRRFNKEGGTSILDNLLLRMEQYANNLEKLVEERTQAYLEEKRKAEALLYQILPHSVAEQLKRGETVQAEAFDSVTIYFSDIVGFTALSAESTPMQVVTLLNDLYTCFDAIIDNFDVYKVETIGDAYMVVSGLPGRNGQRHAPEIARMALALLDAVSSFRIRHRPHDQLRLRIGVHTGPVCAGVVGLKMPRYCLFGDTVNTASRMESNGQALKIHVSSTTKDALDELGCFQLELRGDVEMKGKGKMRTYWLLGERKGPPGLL

rat NPRA = target: T3, rat NPRA (Rattus norvegicus, UniProt P18910); experiment: cGMP generation in HEK cells expressing rat NPRA; format: cell-based; conditions: mean ± SD
T3 construct: expressed in transfected cells; host or cells: HEK cell line
T3 sequence (P18910 29-1057): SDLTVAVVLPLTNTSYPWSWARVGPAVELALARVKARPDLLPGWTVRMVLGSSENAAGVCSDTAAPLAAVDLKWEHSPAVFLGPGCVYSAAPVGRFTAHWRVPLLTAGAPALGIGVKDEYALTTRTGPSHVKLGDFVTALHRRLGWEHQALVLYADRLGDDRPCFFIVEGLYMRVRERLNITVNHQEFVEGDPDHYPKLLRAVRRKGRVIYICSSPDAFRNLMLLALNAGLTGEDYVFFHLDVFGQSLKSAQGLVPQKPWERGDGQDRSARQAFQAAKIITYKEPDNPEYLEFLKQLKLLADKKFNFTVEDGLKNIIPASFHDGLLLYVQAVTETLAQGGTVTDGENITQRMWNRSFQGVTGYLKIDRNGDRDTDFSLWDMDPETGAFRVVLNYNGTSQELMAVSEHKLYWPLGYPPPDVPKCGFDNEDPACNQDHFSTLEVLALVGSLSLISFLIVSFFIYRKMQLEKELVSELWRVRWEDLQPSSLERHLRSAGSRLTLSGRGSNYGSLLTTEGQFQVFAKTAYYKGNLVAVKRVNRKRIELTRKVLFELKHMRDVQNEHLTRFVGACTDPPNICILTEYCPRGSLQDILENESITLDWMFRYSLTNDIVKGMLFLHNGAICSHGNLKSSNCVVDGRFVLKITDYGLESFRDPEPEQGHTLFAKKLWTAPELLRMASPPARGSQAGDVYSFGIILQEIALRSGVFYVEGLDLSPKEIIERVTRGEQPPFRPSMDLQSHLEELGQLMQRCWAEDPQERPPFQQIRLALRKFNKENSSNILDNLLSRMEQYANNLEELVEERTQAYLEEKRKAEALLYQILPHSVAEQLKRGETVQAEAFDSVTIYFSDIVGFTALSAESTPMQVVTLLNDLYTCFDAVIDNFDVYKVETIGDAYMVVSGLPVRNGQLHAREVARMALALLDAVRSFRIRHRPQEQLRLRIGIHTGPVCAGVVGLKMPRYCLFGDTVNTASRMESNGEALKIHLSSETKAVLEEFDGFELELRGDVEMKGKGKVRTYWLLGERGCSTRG

[2] = Human clinical trial, subcutaneous formulation: half life; conditions: in vivo, sc, subcutaneously administered formulation
Procedure: In a human clinical trial of a subcutaneously administered formulation in which the mimetic of formula IV was the active pharmaceutical ingredient, the half life of the mimetic of formula IV was determined to be approximately 3 hours. The mimetic of formula IV lead to a mean peak increase in plasma cGMP concentration of 1.7 ng/mL at a dose of 0.3 μg/kg of the mimetic of formula IV as a single, subcutaneous injection.

plasma cGMP = experiment: Safety study in healthy volunteers: pharmacodynamic parameters (plasma cGMP); format: in vivo, human; conditions: mean ± SD
Procedure: (§1) In a safety study, the mimetic of formula IV was administered to healthy volunteers. Doses of 0.1, 0.3, 0.7 and 1.0 μg/kg of the mimetic of formula IV were administered.
(§2) Kel is the apparent terminal elimination rate constant, calculated by linear regression of the terminal linear portion of the log concentration versus the time curve. The plasma cGMP concentrations returned to baseline levels by approximately 8 hours after dosing following 0.7 μg/kg and 1.0 μg/kg of the mimetic of formula IV.

[3] = as above; format: in vivo, human; conditions: human, in vivo, mean ± SD, read-out: t½ (converted)
Procedure: as §1, §2

SMILES | reported human plasma half-life [1] | Emax (human NPRA; HEK293, hNPRA, read-out: hNPRA Function (cGMP) Emax (%)) | Function (cGMP) Emax (% of ANP response) (human NPRA; human NPRA) | Emax (hNPRB (human NPRB)) | Function (cGMP) Emax (% of ANP response) (rat NPRA) | half-life [2] | Kel (apparent terminal elimination rate constant) (plasma cGMP; dose 0.7 μg/kg) | Kel (apparent terminal elimination rate constant) (plasma cGMP; dose 1.0 μg/kg) | half-life ([3]; 0.7 ug/kg) | half-life ([3]; 1 ug/kg)
CC[C@H](C)[C@@H]1NC(=O)[C@H](CCCNC(=N)N)NC(=O)[C@H](CC(=O)O)NC(=O)[C@H](CC(C)C)NC(=O)[C@H](CCCCN)NC(=O)[C@H](CC(C)C)NC(=O)CNC(=O)[C@H](Cc2ccccc2)NC(=O)[C@@H](NC(=O)CNC(=O)[C@H](CCCCN)NC(=O)[C@H](CO)NC(=O)[C@H](CC(C)C)NC(=O)CN)CSSC[C@@H](C(=O)O)NC(=O)CNC(=O)[C@H](CC(C)C)NC(=O)CNC(=O)[C@H](CO)NC(=O)[C@H](CCSC)NC(=O)[C@H](CO)NC(=O)CNC1=O [hCNP] | about 2 minutes |  |  |  |  |  |  |  |  | 
CCCCCCC(=O)N[C@H]1CSSC[C@@H](C(=O)N[C@@H](Cc2ccc(O)cc2)C(=O)N2C[C@H](C(N)=O)NC(=O)[C@@H]2CCCNC(=N)N)NC(=O)[C@H](CO)NC(=O)[C@H]([C@@H](C)CC)NC(=O)[C@H](CCCNC(=N)N)NC(=O)[C@H](CC(=O)O)NC(=O)[C@@H](CCCC)NC(=O)[C@H](CCCNC(=N)N)NC(=O)CNC(=O)[C@@H](C)NC(=O)[C@H](Cc2ccccc2)NC(=O)[C@H](Cc2c[nH]cn2)NC1=O [mimetic of formula IV] (Heptanoyl-CHF[dA]GR[dNle]DRISCY-X1; disulfide 1-12) |  | 94 ± 8% | 94 ± 8 % of ANP response | 1 ± 1% | 98 ± 7 % of ANP response | ~3 h | 0.231 ± 0.025 h⁻¹ | 1.05 ± 1.22 h⁻¹ | 3.03 ± 0.345 h | 2.98 ± 3.61 h

From patent US20160354443A1, “Replacement Therapy for Natriuretic Peptide Deficiencies” (priority 2014, published 2016)
